Laboratory results taken from patent publication US5612314A, “Nitrosylated neuropeptides” (Brigham & Women's Hospital, priority 1995, dated 1997).
Where two headings read alike, the source gives them in different places.

Columns and labels:
[1] = test system: guinea-pig trachea; conditions: for IC50: read-out: IC50 of relaxation of tracheal rings, precontracted with 10 μM methacholine, FIG. 4; for time for relaxation to reach a plateau: 100 nM; for effect of pretreatment with 100 nM propanol on the induced relaxation: cumulative additions, dose range 10-320 nM
Description: (§3) Male Hartley guinea pigs (300-400 g) were anesthetized by use of intraperitoneal injection of pentobarbital sodium (40 mg/kg) to achieve a deep plane of anesthesia. The tracheas were dissected out, transferred to cold Krebs' solution. Tracheas were then dissected free from surrounding fat and connective tissue and cut transversely between the segments of cartilage, so as to give tracheal rings about 2 mm thick. The rings were suspended between stainless-steel hooks in the 20 ml organ baths containing the above-mentioned Krebs' solution at 37° C. The hooks were connected to the FT03C transducers. Rings were equilibrated at a basal tension of 1 g as described above and then primed twice with methacholine (100 nM). The rings were rinsed throughout after each priming exposure. Tracheal rings were not used if they could not sustain at least 1 g tension when exposed to 100 nM methacholine. The surface of organ baths was treated with 1N HCl to minimize contamination and allowed to dry in room air before Krebs' solution were added. For relaxation studies, methacholine (100 nM) was used to contract the tracheal rings and results are expressed in percentage of relaxation of methacholine-induced tone.

[2] = dog, in vivo
Description: (§1) Male mongrel dogs (20-30 kg) were used as the animal model. Under pentobarbital anesthesia (30 mg/kg) and mechanical respiration, a 20 gauge anglocatheter was placed into the carotid artery for measurement of systemic blood pressure. A ventral incision was made in the penis and the corpora cavernosa were exposed.
(§2) A 19 gauge minicatheter was inserted deep into the cavernosal tissue, on each corpus, for pressure measurement and delivery of either VIP, VIP-Gly-Cys-NO, VIP-Gly-Cys-NH2 or papaverine. […] Drugs were delivered intracavernosally in solution, 0.5 ml volume, at variable syringe concentrations, starting at 10^-7 M and progressively increasing the dose up to, in some instances, 10^-4 M. In most experiments, at the end, papaverine 80 mM was administered intracavernosally in order to compare this response to those elicited by VIP or its analogs. At all times systemic blood pressure was monitored, for comparison with intracavernosal pressure.

[3] = test system: rat gastric fundus strips; test: Contraction of rat gastric fundus strips; format: cell-based; conditions: for relative potency of inhibition of contraction amplitude: 5HT (10 μM) present, FIG. 8
Description: Male and female Sprague-Dawley rats weighing 200-300 g were anesthetized with 40 mg/kg sodium pentobarbital given intraperitoneally. After deep anesthesia was obtained, exsanguination was accomplished by severing both the jugular vein and common carotid artery. The abdomen was opened at the midline and the stomach was removed, and transferred to the ice cold oxygenated Krebs' solution at pH 7.4. The stomach was dissected out and the pink pyloric end cut away from the grey fundal end. The fundal end was split open so as to form a sheet, the contents were washed away. Longitudinal muscle strips (3×20 mm) of the gastric fundus were prepared as described by Vane (Vane, Br. J. Pharmac. Chemother., 12:344, 1957). The strips were mounted under a 1-g resting tension between two parallel platinum electrodes placed inside the organ baths containing 20-ml of the gassed Krebs' solution. The Krebs' solution also contained atropine (1 μM) and guanethidine (4 μM) to block cholinergic and adrenergic involvement in response to field stimulation of intramural nerves and 5-hydroxytryptamine (5-HT, 5-10 μM) to raise the tone of the smooth muscle. In some experiments, indomethacin (10 μM) was present in Krebs' to avoid the influence of endogenous prostaglandins. Tissues were allowed to equilibrate for 1 h with changes of Krebs' solution every 10 minutes.
After the equilibration period, relaxations of smooth muscle were elicited by VIP, VIPGC, VIPGC-NO, isoproterenol and GSNO. In some experiments, the strips were incubated for 10 minutes with N^G -monomethyl L-arginine (L-NMMA).

[4] = test system: cGMP and cAMP content of guinea pig tracheal rings; test: Cyclic GMP and cyclic AMP content of guinea pig tracheal rings (enzyme-immunoassay); format: cell-based; conditions: 100 nM, n=4, FIG. 10; for cGMP content of tracheal rings: at plateau of relaxation
Description: (§4) Frozen tissues were homogenized in ice-cold 6% trichloroacetic acid to give approximately a 10% (w/v) homogenate. The homogenates were centrifuged at 2,000 g for 15 minutes at 4° C. The supernatant fractions were decanted off the pellets and washed four times with 5 volumes of water-saturated ethyl ether, and the aqueous extracts remaining were saved for assay for cyclic GMP and AMP using enzyme-immunoassay kits (Amersham Life Science Inc., Arlington Heights, IL).

[5] = test system: guinea-pig trachea; test: tissue or blood; conditions: Cavia porcellus, read-out: IC50 of relaxation of tracheal rings
Description: as §3

[6] = test system: rabbit sphincter of Oddi; test: Contractility of isolated rabbit sphincter of Oddi; format: cell-based; conditions: for effect on ACh-induced contractions: ACh-pretreated (10 μM), cumulative addition, peptides 1 nM-1 μM, GSNO 0.1-100 μM; for inhibition at 100 µM: Oryctolagus cuniculus
Description: The preparation of rabbit sphincters of Oddi (SO) was similar to that described previously (Slivka et al. 1994) with minor modifications. Briefly, the rabbit abdomen was opened at the midline. The gall bladder, bile duct, gastric antrum and contiguous duodenum were isolated, removed en bloc, and transferred to ice cold Krebs' solution at pH 7.4. The duodenum was opened along the antimesenteric border as was the adjacent pylorus and gastric antrum. From the luminal surface, the ampulla of Vater was identified and the SO isolated on ice under an illuminated magnifier by sharp dissection.
The SO were mounted on pairs of the hooks and suspended in organ chambers containing the Krebs' solution at 37° C. Resting tension was adjusted to 1 g, and circular contractions were monitored by the FT03C force transducer and recorded on the model 7 Grass polygraphs. SO were allowed to equilibrate as described above. […] Some experiments were performed by using ACh to intensify SO contractility, and then the effects of VIP, VIPGC-NO, VIPGC and GSNO on SO contractility were tested. After each experimental observation was complete, the SO were washed at least three times with fresh Krebs' solution.

[7] = test system: corpora cavernosa; test: Erectile response (intracavernosal pressure) in vivo in the anesthetized dog
Description: as §1, §2

[8] = test system: rabbit aortic rings; test: Relaxation of precontracted rabbit aortic rings (isometric tension); format: cell-based; conditions: for relaxation of aortic rings, cumulative additions: intact rings precontracted with phenylephrine (100 μM), 10 nM to 1 μM, FIG. 2
Description: Briefly, male New Zealand rabbits weighing 1.5 to 2.0 Kg were anesthetized by an intravenous injection of sodium pentobarbital (40 mg/kg) into a marginal ear vein. The descending thoracic aorta was quickly removed and placed in ice-cold Krebs' solution containing the following composition (mM): NaCl, 118; KCl, 4.8; MgSO4, 1.2; CaCl2, 2.5; KH2 PO4, 1.2; NaHCO3, 25; glucose, 11; Na2 EDTA, 0.03. The thoracic aorta was first trimmed free of most adipose and connective tissue. It was then cut into transverse rings by placing it at a right angle across five parallel razor blades mounted at 2.5 mm intervals in a plastic holder and then rolling a large polypropylene pipette tip over it (simultaneously producing four rings of equal size). The aortic rings and other tissues (see the following) used in this study, were mounted on pairs of L-shaped hooks and suspended in Krebs' solution (gassed with 95% 02 /5% CO2, 37° C.) in 20 ml organ chambers unless stated otherwise.
Results are expressed in percentage of relaxation of phenylephrine-induced tone.

[9] = test system: cGMP and cAMP content of rabbit aortic rings; test: Cyclic GMP and cyclic AMP content of rabbit aortic rings (enzyme-immunoassay); format: cell-based; conditions: 1 μM, FIG. 9; for cGMP content of aortic rings: at maximum relaxation
Description: as §4

## CC[C@H](C)[C@H](NC(=O)[C@H](CO)NC(=O)[C@H](CC(N)=O)NC(=O)[C@H](CC(C)C)NC(=O)[C@H](Cc1ccc(O)cc1)NC(=O)[C@H](CCCCN)NC(=O)[C@H](CCCCN)NC(=O)[C@@H](NC(=O)[C@H](C)NC(=O)[C@H](CCSC)NC(=O)[C@H](CCC(N)=O)NC(=O)[C@H](CCCCN)NC(=O)[C@H](CCCNC(=N)N)NC(=O)[C@H](CC(C)C)NC(=O)[C@H](CCCNC(=N)N)NC(=O)[C@@H](NC(=O)[C@H](Cc1ccc(O)cc1)NC(=O)[C@H](CC(N)=O)NC(=O)[C@H](CC(=O)O)NC(=O)[C@@H](NC(=O)[C@H](Cc1ccccc1)NC(=O)[C@@H](NC(=O)[C@H](C)NC(=O)[C@H](CC(=O)O)NC(=O)[C@H](CO)NC(=O)[C@@H](N)Cc1c[nH]cn1)C(C)C)[C@@H](C)O)[C@@H](C)O)C(C)C)C(=O)N[C@@H](CC(C)C)C(=O)N[C@@H](CC(N)=O)C(=O)NCC(=O)N[C@@H](CS)C(N)=O [VIPGC, VIP-Gly-Cys-NH2]
[1]
  IC50: 59 ± 9 nM
[2]
  diastolic blood pressure (DBP): 120 mm Hg

## CC(C)NCC(O)c1ccc(O)c(O)c1 (stereo not shown) [isoproterenol]
[1]
  time for relaxation to reach a plateau: about 5 minutes
  effect of pretreatment with 100 nM propanol on the induced relaxation: blocked
[3]
  relative potency of inhibition of contraction amplitude: two least potent inhibitors
[4]
  cGMP content of tracheal rings: no appreciable changes in the cGMP content
  cAMP content of tracheal rings: significant increase in the cAMP level
[5]
  IC50: 47 ± 3 nM

## CC[C@H](C)[C@H](NC(=O)[C@H](CO)NC(=O)[C@H](CC(N)=O)NC(=O)[C@H](CC(C)C)NC(=O)[C@H](Cc1ccc(O)cc1)NC(=O)[C@H](CCCCN)NC(=O)[C@H](CCCCN)NC(=O)[C@@H](NC(=O)[C@H](C)NC(=O)[C@H](CCSC)NC(=O)[C@H](CCC(N)=O)NC(=O)[C@H](CCCCN)NC(=O)[C@H](CCCNC(=N)N)NC(=O)[C@H](CC(C)C)NC(=O)[C@H](CCCNC(=N)N)NC(=O)[C@@H](NC(=O)[C@H](Cc1ccc(O)cc1)NC(=O)[C@H](CC(N)=O)NC(=O)[C@H](CC(=O)O)NC(=O)[C@@H](NC(=O)[C@H](Cc1ccccc1)NC(=O)[C@@H](NC(=O)[C@H](C)NC(=O)[C@H](CC(=O)O)NC(=O)[C@H](CO)NC(=O)[C@@H](N)Cc1c[nH]cn1)C(C)C)[C@@H](C)O)[C@@H](C)O)C(C)C)C(=O)N[C@@H](CC(C)C)C(=O)N[C@@H](CC(N)=O)C(=O)NCC(=O)N[C@@H](CSN=O)C(N)=O [VIPGC-NO, VIP-Gly-Cys-NO]
[1]
  IC50: 32 ± 6 nM
[2]
  diastolic blood pressure (DBP): 120 mm Hg

## CC[C@H](C)[C@H](NC(=O)[C@H](CO)NC(=O)[C@H](CC(N)=O)NC(=O)[C@H](CC(C)C)NC(=O)[C@H](Cc1ccc(O)cc1)NC(=O)[C@H](CCCCN)NC(=O)[C@H](CCCCN)NC(=O)[C@@H](NC(=O)[C@H](C)NC(=O)[C@H](CCSC)NC(=O)[C@H](CCC(N)=O)NC(=O)[C@H](CCCCN)NC(=O)[C@H](CCCNC(=N)N)NC(=O)[C@H](CC(C)C)NC(=O)[C@H](CCCNC(=N)N)NC(=O)[C@@H](NC(=O)[C@H](Cc1ccc(O)cc1)NC(=O)[C@H](CC(N)=O)NC(=O)[C@H](CC(=O)O)NC(=O)[C@@H](NC(=O)[C@H](Cc1ccccc1)NC(=O)[C@@H](NC(=O)[C@H](C)NC(=O)[C@H](CC(=O)O)NC(=O)[C@H](CO)NC(=O)[C@@H](N)Cc1c[nH]cn1)C(C)C)[C@@H](C)O)[C@@H](C)O)C(C)C)C(=O)N[C@@H](CC(C)C)C(=O)N[C@@H](CC(N)=O)C(N)=O [VIP, vasoactive intestinal peptide]
[1]
  time for relaxation to reach a plateau: about 20 minutes
  effect of pretreatment with 100 nM propanol on the induced relaxation: did not antagonize
[6]
  persistence of effect: at least 90 minutes
  time to observed effect after addition to organ chambers: ≤ 2 min
  effect on ACh-induced contractions: gradually attenuated
[6]; 1 μM
  inhibition of contraction frequency: 94±16%
[6]; 1 μM, ACh 10 μM
  inhibition of ACh-enhanced phasic contractions: 93±7%
[6]; cumulative addition 1 nM-1 μM, FIG. 5, 6
  inhibition of basic contraction frequency and amplitude: inhibited both basic contraction frequency and amplitude dose-dependently
[6]; single dose 0.1 μM, 30 minutes, n=5, FIG. 7
  irregular and incomplete contractions noted during incubation: 40±11
[7]; 10^-5 M, FIG. 16
  erectile response: partial and short erectile response
[7]; intracavernosal 10^-5 M, FIG. 13
  erectile response: capable of inducing sustained penile erection
[8]
  relaxation of aortic rings, cumulative additions: certain degree of relaxation only at 1 μM
[8]; single doses (1 μM), FIG. 3
  relaxation of phenylephrine-precontracted aortic rings: 19±4%
[9]
  cGMP content of aortic rings: less than that of VIPGC-NO or GSNO
  cAMP content of aortic rings: no significant increase in cAMP content
[4]
  cGMP content of tracheal rings: significant increase in the content of cGMP
  cAMP content of tracheal rings: no concomitant increases in the cAMP level

## NCCc1c[nH]c2ccc(O)cc12 [5HT, 5-hydroxytryptamine]
[3]; 10 μM
  effect on contractions of the strips: significant increase in contractions

## CC(=O)OCC[N+](C)(C)C [ACh, acetylcholine]
[6]; 10 μM, n=12
  acceleration in phasic contractions: 69±15%
  elevations in tonic pressure: 73±12%

## N[C@@H](CCC(=O)N[C@@H](CSN=O)C(=O)NCC(=O)O)C(=O)O [GSNO, S-nitrosoglutathione]
[6]
  effect on ACh-induced contractions: gradually attenuated
[6]; ACh 10 μM, read-out: inhibition of ACh-enhanced phasic contractions
  inhibition at 100 µM: 89 ± 5%
[6]; read-out: inhibition of basic contractility of sphincter of Oddi
  inhibition at 100 µM: 91 ± 9%
[3]
  relative potency of inhibition of contraction amplitude: two least potent inhibitors
[8]
  relaxation of aortic rings, cumulative additions: also observed in the rings exposed to GSNO
[9]
  cGMP content of aortic rings: significant increase in cGMP concentration
  cAMP content of aortic rings: no significant increase in cAMP content
